Legend:
[1] = molecular target: T1, Adrenergic receptor alpha-2 (Rattus norvegicus, UniProt P22086+P19328+P22909); assay: Inhibition of [3H]clonidine binding to the rat alpha-2-adrenoceptor; format: protein assay; set-up: Log Ki: unit not given here
T1 sequence (P22086 whole entry): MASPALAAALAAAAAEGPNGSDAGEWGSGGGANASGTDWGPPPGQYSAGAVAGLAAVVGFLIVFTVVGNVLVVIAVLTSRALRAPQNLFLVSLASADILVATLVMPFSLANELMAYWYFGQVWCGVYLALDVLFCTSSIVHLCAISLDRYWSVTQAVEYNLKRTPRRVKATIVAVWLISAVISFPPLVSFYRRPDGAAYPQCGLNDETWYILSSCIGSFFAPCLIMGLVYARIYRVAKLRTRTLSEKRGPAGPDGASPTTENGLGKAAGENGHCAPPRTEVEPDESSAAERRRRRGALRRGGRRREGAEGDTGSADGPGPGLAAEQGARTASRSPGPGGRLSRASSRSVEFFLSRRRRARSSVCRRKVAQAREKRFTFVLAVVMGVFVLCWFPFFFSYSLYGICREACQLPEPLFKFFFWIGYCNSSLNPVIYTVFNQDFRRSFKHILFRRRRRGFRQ
T1 sequence (P19328 whole entry): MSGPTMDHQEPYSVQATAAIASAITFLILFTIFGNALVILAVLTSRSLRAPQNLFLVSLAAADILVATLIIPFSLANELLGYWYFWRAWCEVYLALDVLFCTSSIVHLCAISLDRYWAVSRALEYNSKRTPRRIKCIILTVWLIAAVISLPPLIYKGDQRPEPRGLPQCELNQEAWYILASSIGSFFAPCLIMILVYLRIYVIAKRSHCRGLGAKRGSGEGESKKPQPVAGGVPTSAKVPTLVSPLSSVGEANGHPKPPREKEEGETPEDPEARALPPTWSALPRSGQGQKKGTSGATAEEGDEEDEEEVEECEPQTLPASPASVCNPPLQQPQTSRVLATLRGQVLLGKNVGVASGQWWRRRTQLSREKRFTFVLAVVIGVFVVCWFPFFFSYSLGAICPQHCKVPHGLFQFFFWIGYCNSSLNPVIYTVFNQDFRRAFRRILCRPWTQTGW
T1 sequence (P22909 whole entry): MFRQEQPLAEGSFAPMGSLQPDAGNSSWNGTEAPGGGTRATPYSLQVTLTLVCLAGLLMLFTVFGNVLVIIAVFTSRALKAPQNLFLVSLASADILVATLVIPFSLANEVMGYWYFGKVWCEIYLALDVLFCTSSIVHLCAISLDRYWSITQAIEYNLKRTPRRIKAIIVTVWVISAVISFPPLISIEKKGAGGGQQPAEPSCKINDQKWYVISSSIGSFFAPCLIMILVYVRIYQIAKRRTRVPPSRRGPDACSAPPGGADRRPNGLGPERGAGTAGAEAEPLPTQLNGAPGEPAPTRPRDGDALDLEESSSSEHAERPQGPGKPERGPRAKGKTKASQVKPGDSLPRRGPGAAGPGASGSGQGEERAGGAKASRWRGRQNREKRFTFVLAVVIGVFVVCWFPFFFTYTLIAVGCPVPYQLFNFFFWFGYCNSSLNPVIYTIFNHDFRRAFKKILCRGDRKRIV

[2] = molecular target: T2, Phenylethanolamine N-methyltransferase (Bos taurus, UniProt P10938); assay: Inhibitory activity against bovine adrenal phenylethanolamine N-methyl-transferase (PNMT)
T2 sequence (P10938 whole entry): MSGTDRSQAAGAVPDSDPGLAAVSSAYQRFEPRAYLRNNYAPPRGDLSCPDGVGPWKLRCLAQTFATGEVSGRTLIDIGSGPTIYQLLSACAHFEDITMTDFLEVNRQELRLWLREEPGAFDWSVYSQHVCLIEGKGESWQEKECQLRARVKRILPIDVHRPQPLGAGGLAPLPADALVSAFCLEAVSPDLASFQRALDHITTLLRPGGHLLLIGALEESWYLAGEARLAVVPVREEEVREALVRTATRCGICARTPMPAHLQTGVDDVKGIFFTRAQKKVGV

[3] = Relative affinity for alpha-2-adrenoceptor and phenylethanolamine N-methyl-transferase (PNMT); set-up: reference not given here

Row | Structure (SMILES) | Log Ki [1] | Ki [2] | other results
1 | C[C@H]1Cc2ccc(Cl)c(Cl)c2CN1 | 6.37 | 0.912 µM | –
2 | C[C@H]1Cc2ccccc2CN1 | 6.31 | – | –
3 | C[C@@H]1Cc2ccccc2CN1 | 5.24 | – | –
4 | COc1cccc2c1CCNC2 | 6.89 | – | –
5 | NC(=O)c1ccc2c(c1)CNCC2 | 4.64 | – | –
6 | c1ccc2c(c1)CCNC2 [1,2,3,4-TETRAHYDROISOQUINOLINE] | 6.45 | – | –
7 | O=[N+]([O-])c1cc2c(c([N+](=O)[O-])c1)CCNC2 | 4.11 | 57.5 µM | –
8 | FC(F)(F)[C@H]1Cc2ccc(Br)cc2CN1 | – | – | Selectivity [3]: 0.83
9 | Oc1ccc2c(c1)CNCC2 | 5.65 | – | –
10 | Clc1ccc2c(c1Cl)CNCC2 | 7.66 | – | –
11 | Oc1cccc2c1CCNC2 | 6.11 | – | –
12 | Nc1ccc2c(c1)CNCC2 | 5.51 | – | –
13 | C=CCS(=O)(=O)c1ccc2c(c1)CNCC2 | 4.02 | – | –
14 | CC1Cc2sc3ccccc3c2CN1 (stereo unspecified) | – | – | Selectivity [3]: 1.3
15 | CNS(=O)(=O)c1ccc2c(c1)CNCC2 | 3.88 | – | –
16 | OC[C@H]1Cc2ccc(Cl)c(Cl)c2CN1 | – | – | Selectivity [3]: 0.32
17 | FC(F)(F)C1Cc2ccccc2CN1 (stereo unspecified) | – | – | Selectivity [3]: 26; Ki [1]: 400 µM
18 | Ic1ccc2c(c1)CNCC2 | 6.66 | – | –
19 | O=[N+]([O-])c1ccc2c(c1)CN[C@H](C(F)(F)F)C2 | – | – | Selectivity [3]: 25
20 | Oc1cccc2c1CNCC2 | 6.14 | 603 µM | –
21 | CSc1ccc2c(c1)CNCC2 | 6.39 | 0.617 µM | –

Row | Structure (SMILES) | Log Ki [1] | Ki [2] | other results
22 | CN1CCc2ccccc2C1 | 6.62 | 50.1 µM | –
23 | NCc1cccc2ccccc12 | 5.79 | – | –
24 | C[C@H](N)c1ccccc1 | 3.92 | – | –
25 | COC(=O)c1ccc2c(c1)CNCC2 | 5.34 | – | –
26 | O=[N+]([O-])c1ccc2c(c1)CNCCCC2 | 4.08 | 4.57 µM | –
27 | OCC1Cc2ccc(Cl)c(Cl)c2CN1 (stereo unspecified) | – | – | Selectivity [3]: 0.39
28 | C[C@H](N)c1ccc(Cl)c(Cl)c1 | 4.44 | 5.01 µM | –
29 | COc1ccc2c3c(ccc2c1)CCNC3 | – | 14.1 µM | –
30 | CC(=O)c1ccc2c(c1)CNCC2 | 5.21 | – | –
31 | c1ccc2c(c1)CCCCNC2 | 4.81 | – | –
32 | CS(=O)(=O)c1ccc2c(c1)CNC(C(F)(F)F)C2 (stereo unspecified) | – | – | Selectivity [3]: 110; Ki [1]: 3900 µM
33 | O=[N+]([O-])c1ccc2c(c1)CN[C@@H](C(F)(F)F)C2 | – | – | Selectivity [3]: 240
34 | N#Cc1ccc2c(c1)CN[C@@H](C(F)(F)F)C2 | – | – | Selectivity [3]: 15
35 | N#Cc1ccc2c(c1)CNCC2 | 5.14 | – | –
36 | CS(=O)(=O)c1ccc2c(c1)CN[C@H](C(F)(F)F)C2 | – | – | Selectivity [3]: 22
37 | Nc1ccc2c(c1)CNCCC2 | 3.96 | 24 µM | –
38 | CSc1ccc2c(c1)CNCCC2 | 4.92 | 1.05 µM | –
39 | O=[N+]([O-])c1ccc2c(c1)CNCCC2 | 4.18 | 0.389 µM | –
40 | COc1ccc2c(c1)CNCC2 | 6.33 | – | –
41 | O=S(=O)(c1ccccc1)c1ccc2c(c1)CNCC2 | 4.67 | – | –
42 | COC(=O)Nc1ccc2c(c1)CNCC2 | 5.04 | 186 µM | –

Row | Structure (SMILES) | Log Ki [1] | Ki [2] | other results
43 | O=S(=O)(c1ccc2c(c1)CNCC2)C(Cl)(Cl)Cl | 4.47 | 1.26 µM | –
44 | Brc1ccc2c(c1)CNCC2 | – | 0.295 µM | –
45 | NS(=O)(=O)c1ccc2c(c1)CNC(CO)C2 (stereo unspecified) | – | – | Selectivity [3]: 290
46 | COc1cccc2c1CNCC2 | 6.52 | – | –
47 | Brc1ccc2c(c1)CNCCC2 | 5.05 | 0.288 µM | –
48 | O=C(c1ccc2c(c1)CNCC2)C(F)(F)F | 4.49 | – | –
49 | c1ccc(Cc2ccc3c(c2)CNCC3)cc1 | 5.33 | 61.7 µM | –
50 | OCc1ccc2c(c1)CNCC2 | 5.64 | – | –
51 | O=C(c1ccccc1)c1ccc2c(c1)CNCC2 | 4.57 | – | –
52 | c1ccc2c(c1)CCCNC2 | 4.97 | – | –
53 | OC[C@@H]1Cc2ccccc2CN1 | 4.77 | – | –
54 | Oc1cc2c(cc1O)CNCC2 | 6.32 | 3.89 µM | –
55 | N#Cc1ccc2c(c1)CN[C@H](C(F)(F)F)C2 | – | – | Selectivity [3]: 1.4
56 | Oc1ccc2c3c(ccc2c1)CCNC3 | 7.1 | – | –
57 | C[C@H]1CCc2ccc(Cl)c(Cl)c2CN1 | 5.36 | 5.75 µM | –
58 | NS(=O)(=O)c1ccc2c(c1)CN[C@@H](C(F)(F)F)C2 | – | – | Selectivity [3]: 61
59 | O=C(O)c1ccc2c(c1)CNCC2 | 3.33 | – | –
60 | C[C@@H](N)c1ccc(Cl)c(Cl)c1 | 4.39 | 32.4 µM | –
61 | Oc1ccc2c(c1)CCNC2 | 6 | 5.75 µM | –
62 | Clc1ccc2c(c1Cl)CNCCC2 | 5.39 | – | –
63 | NS(=O)(=O)c1ccc2c(c1)CNCCC2 | 3.82 | 1.66 µM | –

Row | Structure (SMILES) | Log Ki [1] | Ki [2] | other results
64 | c1ccc2c(c1)CNCCN2 | 5.58 | – | –
65 | C[C@@H](N)c1ccccc1 | 3.54 | – | –
66 | CN1CCCCc2ccccc2C1 | 5.39 | 1150 µM | –
67 | CS(=O)(=O)c1ccc2c(c1)CN[C@@H](C(F)(F)F)C2 | – | – | Selectivity [3]: 190
68 | FC(F)(F)c1ccc2c(c1)CNCC2 | 5.89 | 0.182 µM | –
69 | O=[N+]([O-])c1cc2c(c([N+](=O)[O-])c1)CCCNC2 | 4.6 | 36.3 µM | –
70 | C[C@@H]1Cc2ccc(Cl)c(Cl)c2CN1 | 6.66 | 0.355 µM | –
71 | C[C@@H]1Cc2sc3ccccc3c2CN1 | – | – | Selectivity [3]: 0.08
72 | C[C@@H]1Cc2ccc([N+](=O)[O-])cc2CN1 | 4.28 | – | –
73 | C[C@@H]1CCc2ccc(Cl)c(Cl)c2CN1 | 5.56 | 0.417 µM | –
74 | OC[C@@H]1Cc2ccc(Cl)c(Cl)c2CN1 | – | – | Selectivity [3]: 2.1
75 | OC[C@H]1Cc2ccccc2CN1 | 5.36 | – | –
76 | NCc1ccc2c(c1)CNCC2 | 4.92 | – | –
77 | CS(=O)(=O)c1ccc2c(c1)CNCCC2 | 3.82 | 7.76 µM | –
78 | C[C@H]1Cc2ccc([N+](=O)[O-])cc2CN1 | 4.72 | – | –
79 | COc1ccc(OC)c2c1CCNC2 | 6.25 | 1000 µM | –
80 | FC(F)(F)[C@@H]1Cc2ccc(Br)cc2CN1 | – | – | Selectivity [3]: 2.6
81 | FC(F)(F)[C@H]1Cc2ccccc2CN1 | – | – | Selectivity [3]: 0.05
82 | Cc1ccc2c(c1)CNCC2 | 6.44 | 2.69 µM | –
